The test system of the experiment is medulloblastoma cell line DAOY. The experiment can be described thus: Inhibition of growth of medulloblastoma cell line DAOY. Format: cell-based. The settings on record: over 7 days (FIG. 16). From the text: For all cell culture experiments, cells are allowed to grow in the presence or absence of different concentrations of drug or in the presence of the vehicle used to dissolve the drug, PBS for compound 100 and DMSO for compound 102. Cell counts are done in triplicate on day 3 and day 7 and inhibition of growth is expressed as a percentage of the number of cells present in the experimental well divided by the number of cells in a control well.

`CN1CCN(C(=O)C2C(C(=O)O)[C@H]3CC[C@@H]2O3)CC1` (stereo partly shown) [Compound 100, Endothall 4-Methylpiperazine Monoamide]: the “Inhibition of growth of DAOY (in words)” value is “dose dependent inhibition”.

Source of the values: patent US10023587B2, “Oxabicycloheptanes and oxabicycloheptenes, their preparation and use” (LIXTE BIOTECHNOLOGY, INC., priority 2007, dated 2018).
